# According to PMC4076210, “Discovery of Novel AKT Inhibitors with Enhanced Anti-Tumor Effects in Combination with the MEK Inhibitor” (PLoS ONE, 2014):
# Read-outs that look alike come from different tables or passages of the source.
# What was measured:
# EphB4(h) = target: T1, EphB4(h) (Homo sapiens, UniProt P54760); assay: Kinase panel; type: biochemical
# T1 construct: purchased Millipore KinaseProfiler
# T1 sequence (P54760 16-987): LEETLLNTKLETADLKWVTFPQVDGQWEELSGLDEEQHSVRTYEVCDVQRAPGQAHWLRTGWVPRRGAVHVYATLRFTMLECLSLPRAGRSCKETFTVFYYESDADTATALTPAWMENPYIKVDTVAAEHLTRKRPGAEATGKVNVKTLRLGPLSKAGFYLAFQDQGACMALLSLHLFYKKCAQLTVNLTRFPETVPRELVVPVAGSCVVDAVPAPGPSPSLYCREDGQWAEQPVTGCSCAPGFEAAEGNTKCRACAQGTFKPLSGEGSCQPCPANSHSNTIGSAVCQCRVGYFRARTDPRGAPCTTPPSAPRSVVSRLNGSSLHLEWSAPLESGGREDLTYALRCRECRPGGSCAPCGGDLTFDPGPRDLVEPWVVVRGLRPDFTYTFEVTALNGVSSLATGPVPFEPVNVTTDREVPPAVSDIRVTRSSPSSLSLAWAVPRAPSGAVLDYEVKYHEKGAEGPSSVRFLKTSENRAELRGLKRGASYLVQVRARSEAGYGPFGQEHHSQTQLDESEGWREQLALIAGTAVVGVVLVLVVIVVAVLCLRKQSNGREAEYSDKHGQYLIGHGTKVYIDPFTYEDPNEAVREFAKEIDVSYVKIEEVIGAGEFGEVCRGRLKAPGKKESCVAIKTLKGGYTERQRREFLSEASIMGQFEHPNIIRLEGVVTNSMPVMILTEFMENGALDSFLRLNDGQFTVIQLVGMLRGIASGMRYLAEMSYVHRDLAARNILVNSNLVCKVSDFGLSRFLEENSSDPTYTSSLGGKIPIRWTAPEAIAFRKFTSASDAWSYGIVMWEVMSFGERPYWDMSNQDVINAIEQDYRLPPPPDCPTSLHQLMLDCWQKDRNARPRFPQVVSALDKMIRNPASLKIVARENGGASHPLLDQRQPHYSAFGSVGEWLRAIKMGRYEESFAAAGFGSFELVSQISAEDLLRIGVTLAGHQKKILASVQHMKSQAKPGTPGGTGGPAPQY
# PKCα = PKCα (Homo sapiens, UniProt P17252); assay: Kinase IC50 assay; type: biochemical
# cKit(V560G)(h) = target: T2, cKit(V560G)(h) (Homo sapiens, UniProt P10721, V560G); assay: Kinase panel; type: biochemical
# T2 construct: purchased Millipore KinaseProfiler
# T2 sequence (P10721 26-976 V560G): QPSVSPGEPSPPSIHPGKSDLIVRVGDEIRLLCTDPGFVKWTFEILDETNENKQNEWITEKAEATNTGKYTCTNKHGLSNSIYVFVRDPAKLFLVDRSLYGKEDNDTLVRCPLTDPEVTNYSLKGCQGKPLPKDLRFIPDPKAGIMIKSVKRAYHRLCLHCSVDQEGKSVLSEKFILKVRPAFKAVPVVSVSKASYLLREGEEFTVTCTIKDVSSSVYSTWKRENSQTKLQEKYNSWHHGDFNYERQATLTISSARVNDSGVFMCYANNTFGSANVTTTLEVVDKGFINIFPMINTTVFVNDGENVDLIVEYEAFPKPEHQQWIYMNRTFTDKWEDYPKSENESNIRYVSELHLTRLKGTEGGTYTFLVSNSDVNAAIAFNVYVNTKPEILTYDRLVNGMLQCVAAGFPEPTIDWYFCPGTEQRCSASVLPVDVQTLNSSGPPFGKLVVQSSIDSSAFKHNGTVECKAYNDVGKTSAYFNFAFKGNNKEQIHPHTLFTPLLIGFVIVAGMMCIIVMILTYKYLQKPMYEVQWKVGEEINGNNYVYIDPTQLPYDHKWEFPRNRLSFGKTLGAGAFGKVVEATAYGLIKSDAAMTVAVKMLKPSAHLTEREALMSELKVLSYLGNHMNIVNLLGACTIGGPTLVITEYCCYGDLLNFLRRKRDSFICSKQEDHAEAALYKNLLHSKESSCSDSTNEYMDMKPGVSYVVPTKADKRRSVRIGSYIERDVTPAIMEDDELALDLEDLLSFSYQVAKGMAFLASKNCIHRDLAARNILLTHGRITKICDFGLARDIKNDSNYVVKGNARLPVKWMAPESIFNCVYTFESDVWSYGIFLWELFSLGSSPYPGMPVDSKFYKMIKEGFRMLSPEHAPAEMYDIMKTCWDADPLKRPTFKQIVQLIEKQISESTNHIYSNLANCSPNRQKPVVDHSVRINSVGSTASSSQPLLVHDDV
# Mnk2(h) = target: T3, Mnk2(h) (Homo sapiens, UniProt Q9HBH9); assay: Kinase panel; type: biochemical
# T3 construct: purchased Millipore KinaseProfiler
# T3 sequence (Q9HBH9 whole entry): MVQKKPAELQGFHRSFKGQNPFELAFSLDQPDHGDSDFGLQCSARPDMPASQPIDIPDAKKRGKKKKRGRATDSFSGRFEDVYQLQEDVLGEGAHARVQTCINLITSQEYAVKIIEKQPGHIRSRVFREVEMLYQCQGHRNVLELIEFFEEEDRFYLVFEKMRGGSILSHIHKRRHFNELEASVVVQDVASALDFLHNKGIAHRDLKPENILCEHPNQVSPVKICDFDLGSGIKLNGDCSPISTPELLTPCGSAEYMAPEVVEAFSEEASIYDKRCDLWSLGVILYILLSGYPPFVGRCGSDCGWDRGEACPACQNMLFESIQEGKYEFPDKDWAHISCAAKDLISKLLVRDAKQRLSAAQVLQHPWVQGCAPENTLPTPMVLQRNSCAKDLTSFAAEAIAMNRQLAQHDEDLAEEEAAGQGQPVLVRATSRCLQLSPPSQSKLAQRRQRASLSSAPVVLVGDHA
# PKCα(h) = target: T4, PKCα(h) (Homo sapiens, UniProt P17252); assay: Kinase panel; type: biochemical
# T4 construct: purchased Millipore KinaseProfiler
# EphB3(h) = target: T5, EphB3(h) (Homo sapiens, UniProt P54753); assay: Kinase panel; type: biochemical
# T5 construct: purchased Millipore KinaseProfiler
# T5 sequence (P54753 34-998): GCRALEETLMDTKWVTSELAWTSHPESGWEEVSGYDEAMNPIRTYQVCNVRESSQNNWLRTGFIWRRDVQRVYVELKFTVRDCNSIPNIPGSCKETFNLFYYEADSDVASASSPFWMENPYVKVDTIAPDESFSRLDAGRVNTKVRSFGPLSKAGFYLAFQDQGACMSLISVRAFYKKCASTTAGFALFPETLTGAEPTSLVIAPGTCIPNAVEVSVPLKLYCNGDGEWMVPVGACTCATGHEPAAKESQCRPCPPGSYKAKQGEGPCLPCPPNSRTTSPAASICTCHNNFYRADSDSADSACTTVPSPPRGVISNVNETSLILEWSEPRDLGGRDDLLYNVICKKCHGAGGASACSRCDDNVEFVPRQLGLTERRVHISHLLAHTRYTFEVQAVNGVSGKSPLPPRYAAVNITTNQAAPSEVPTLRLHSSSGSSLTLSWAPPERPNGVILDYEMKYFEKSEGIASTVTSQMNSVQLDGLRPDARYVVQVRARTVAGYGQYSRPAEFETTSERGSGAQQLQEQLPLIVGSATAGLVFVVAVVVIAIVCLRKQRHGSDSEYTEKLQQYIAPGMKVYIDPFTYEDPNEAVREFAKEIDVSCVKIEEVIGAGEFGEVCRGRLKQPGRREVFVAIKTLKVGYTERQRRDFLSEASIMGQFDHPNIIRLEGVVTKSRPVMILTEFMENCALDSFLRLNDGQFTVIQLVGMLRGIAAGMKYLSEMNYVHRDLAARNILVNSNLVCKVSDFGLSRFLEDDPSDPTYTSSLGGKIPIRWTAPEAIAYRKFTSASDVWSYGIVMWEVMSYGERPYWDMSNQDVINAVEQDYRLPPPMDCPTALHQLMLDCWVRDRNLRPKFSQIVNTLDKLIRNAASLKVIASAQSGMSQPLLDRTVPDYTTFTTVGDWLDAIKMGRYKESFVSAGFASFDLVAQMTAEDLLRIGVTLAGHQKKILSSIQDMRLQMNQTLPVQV
# SGK3(h) = target: T6, SGK3(h) (Homo sapiens, UniProt Q96BR1); assay: Kinase panel
# T6 sequence (Q96BR1 1-496): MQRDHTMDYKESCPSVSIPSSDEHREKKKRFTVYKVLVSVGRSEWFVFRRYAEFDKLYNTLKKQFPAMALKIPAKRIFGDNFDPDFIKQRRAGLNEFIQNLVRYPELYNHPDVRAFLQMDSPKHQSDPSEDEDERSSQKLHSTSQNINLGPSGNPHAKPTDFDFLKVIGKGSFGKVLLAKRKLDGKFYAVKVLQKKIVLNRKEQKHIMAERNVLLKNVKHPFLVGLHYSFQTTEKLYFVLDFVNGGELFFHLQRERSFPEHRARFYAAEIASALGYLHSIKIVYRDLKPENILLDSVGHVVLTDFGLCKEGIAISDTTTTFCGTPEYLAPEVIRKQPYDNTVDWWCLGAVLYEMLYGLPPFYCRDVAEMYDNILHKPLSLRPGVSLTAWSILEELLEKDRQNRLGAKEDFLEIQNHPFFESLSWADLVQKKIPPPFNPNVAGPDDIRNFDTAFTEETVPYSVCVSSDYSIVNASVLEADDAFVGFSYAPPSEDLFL
compound,measurement,setting,value
Cn1ncc(Cl)c1-c1cc(C(=O)N[C@H](CN)Cc2cccc(F)c2)sc1Cl [GSK2110183],inhibition at 0.5 µM,EphB4(h),0%
same,inhibition at 10 µM,EphB4(h),10%
same,IC50,PKCα,> 1000 nM
same,inhibition at 0.5 µM,cKit(V560G)(h),-6%
same,inhibition at 10 µM,cKit(V560G)(h),4%
same,inhibition at 0.5 µM,Mnk2(h),22%
same,inhibition at 10 µM,Mnk2(h),84%
same,inhibition at 0.5 µM,PKCα(h),2%
same,inhibition at 10 µM,PKCα(h),40%
same,inhibition at 0.5 µM,EphB3(h),12%
same,inhibition at 10 µM,EphB3(h),-9%
same,inhibition at 0.5 µM,SGK3(h),7%
same,inhibition at 10 µM,SGK3(h),76%
Cn1ncc(Cl)c1-c1cc(C(=O)N[C@H](CN)Cc2ccc(F)c(F)c2)oc1Cl [GSK2141795],inhibition at 0.5 µM,"EphB4(h); 0.5 µM, read-out: % Inhibition",5%
same,inhibition at 10 µM,"EphB4(h); 10 µM, read-out: % Inhibition",5%
same,IC50,PKCα,> 1000 nM
same,inhibition at 0.5 µM,"cKit(V560G)(h); 0.5 µM, read-out: % Inhibition",-25%
same,inhibition at 10 µM,"cKit(V560G)(h); 10 µM, read-out: % Inhibition",16%
same,inhibition at 0.5 µM,"Mnk2(h); 0.5 µM, read-out: % Inhibition",9%
same,inhibition at 10 µM,"Mnk2(h); 10 µM, read-out: % Inhibition",80%
same,inhibition at 0.5 µM,"PKCα(h); 0.5 µM, read-out: % Inhibition",10%
same,inhibition at 10 µM,"PKCα(h); 10 µM, read-out: % Inhibition",62%
same,inhibition at 0.5 µM,"EphB3(h); 0.5 µM, read-out: % Inhibition",-2%
same,inhibition at 10 µM,"EphB3(h); 10 µM, read-out: % Inhibition",9%
same,inhibition at 0.5 µM,SGK3(h),18%
same,inhibition at 10 µM,SGK3(h),84%
